Structures can show the parent of a compound that is named as a salt.

The test system of one experiment is intracellular Ca^2+. As to the kind of experiment: Calcium influx study, intracellular Ca^2+ levels by Fura-2 AM assay. The class given is cell-based. The conditions noted are these: amiloride HCl 100 μM 60 mins, thapsigargin 100 nM 25 mins, BAPTA-AM 10 μM 25 mins, in combinations; FIG. 9a iv, v, vi. The method, then:
The data are represented in terms of the mean value±the standard error over quadruplicate runs, and the asterisks *, **, *** and **** indicate statistically significant differences with p<0:05, p<0:01, p<0:001 and p<0:0001, respectively.
The cells were seeded at a density of 0:05×10^6 cells per well in a 24-well glass-bottom plate and incubated at overnight in a humidified incubator. After incubation, they were treated with combinations of amiloride HCl (100 μM, for 60 mins)—a Ca^2+ ion channel blocker, thapsigargin (100 nM, for 25 mins)—an endoplasmic reticulum calcium ion inhibitor, and, BAPTA-AM (10 μM, for 25 mins)—a membrane permeable calcium chelator that removes intracellular calcium, following which they were incubated in the presence of 10 μM Fura2-AM for 60 mins at 37° C. to measure the intracellular Ca^2+ levels. The cells were then washed to remove the extracellular dye and replenished with DMEM, taking care to protect them from exposure to light. The media devoid of calcium from the inhibitor-treated cells was subsequently replaced with media containing calcium, and, where appropriate, exposed to the SRBW insonation (i.e. acoustic stimulation). Changes in the fluorescence intensity were measured with a spectrophotometric plate reader (CLARIOstar®, BMG LabTech, Mornington, VIC, Australia).

In another experiment the test system is cells. The conditions noted are these: within 2 to 72 hrs; dose dependent; cited from earlier work.

`N=C(N)NC(=O)c1nc(Cl)c(N)nc1N` [amiloride HCl, amiloride hydrochloride]: the “effect on intracellular calcium store” value with intracellular Ca^2+ was “deplete the intracellular calcium store”.
Same read-out and setting: next, `C/C=C(/C)C(=O)O[C@H]1C(C)=C2[C@H]([C@@H]1OC(=O)CCCCCCC)[C@@](C)(OC(C)=O)C[C@H](OC(=O)CCC)[C@@]1(O)[C@H]2OC(=O)[C@@]1(C)O` [thapsigargin]: “deplete the intracellular calcium store”.
calcium phosphate: the enhancing exosome yield result in the experiment with cells is “two-and-one-half-fold”.
As for `C[C@H](CCC(=O)O)C[C@H](C)C[C@H](C)C(=O)/C=C(\O)[C@H](C)C[C@H](C)C/C=C/[C@@H](C)[C@@H](O)[C@@H](C)[C@@H](O)C[C@@H]1CC[C@@](C)([C@H]2CC[C@@](C)([C@@H](C)O)O2)O1` [ionomycin], the enhancing exosome yield entry in the experiment with cells is given as “two-and-one-half-fold”.

These data come from patent publication US20230265378A1, “STIMULATING CELLULAR PRODUCTION OF EXOSOMES” (ROYAL MELBOURNE INSTITUTE OF TECHNOLOGY, priority 2020, published 2023).
